PubChem BioAssay (NCI)
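48-hour exposure; five concentrations; linearly interpolated endpoints. Definition used: TGI = concentration required for complete inhibition of growth.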

Experiments:
Assay in all cases: NCI tumour cell line growth inhibition, 48 h
[1] = tested on: SR leukemia
[2] = tested on: K-562 leukemia
[3] = tested on: 786-0 renal
[4] = tested on: MCF7 breast
[5] = tested on: HCT-116 colon
[6] = tested on: SF-539 CNS
[7] = tested on: OVCAR-8 ovarian
[8] = tested on: NCI-H522 lung
[9] = tested on: RXF 393 renal
[10] = tested on: OVCAR-4 ovarian
[11] = tested on: M14 melanoma
[12] = tested on: NCI/ADR-RES ovarian
[13] = tested on: HCT-15 colon
[14] = tested on: UACC-62 melanoma
[15] = tested on: IGROV1 ovarian
[16] = tested on: MDA-MB-435
[17] = tested on: SK-MEL-2 melanoma
[18] = tested on: MALME-3M melanoma
[19] = tested on: T-47D breast
[20] = tested on: HOP-92 NSCLC
[21] = tested on: SN12C renal
[22] = tested on: HS 578T breast
[23] = tested on: HL-60(TB) leukemia
[24] = tested on: PC-3 prostate
[25] = tested on: HOP-62 NSCLC
[26] = tested on: MDA-MB-231 breast
[27] = tested on: HT29 colon
[28] = tested on: ACHN renal
[29] = tested on: MDA-N
[30] = tested on: EKVX NSCLC
[31] = tested on: A498 renal
[32] = tested on: CAKI-1 renal
[33] = tested on: SK-MEL-5 melanoma
[34] = tested on: SK-OV-3 ovarian
[35] = tested on: CCRF-CEM leukemia
[36] = tested on: RPMI-8226 leukemia
[37] = tested on: SNB-75 CNS
[38] = tested on: BT-549 breast
[39] = tested on: NCI-H23 lung
[40] = tested on: OVCAR-5 ovarian
[41] = tested on: OVCAR-3 ovarian
[42] = tested on: UACC-257 melanoma
[43] = tested on: COLO 205 colon
[44] = tested on: UO-31 renal
[45] = tested on: A549 NSCLC
[46] = tested on: MOLT-4 leukemia
[47] = tested on: TK-10 renal
[48] = tested on: SNB-19 CNS
[49] = tested on: DU-145 prostate
[50] = tested on: SF-295 CNS
[51] = tested on: U251 CNS
[52] = tested on: LOX IMVI melanoma
[53] = tested on: NCI-H226 lung
[54] = tested on: SF-268 CNS
[55] = tested on: KM12 colon
[56] = tested on: SK-MEL-28 melanoma
[57] = tested on: NCI-H460 lung
[58] = tested on: SW-620 colon

What does the source list for S=C(NC/C(Br)=C/Br)Nc1cccc2ccccc12?
TGI [1]: > 100 µM; TGI [2]: 31 µM; TGI [3]: > 100 µM; TGI [4]: 44.4 µM; TGI [5]: 61.9 µM; TGI [6]: 69.1 µM; TGI [7]: > 100 µM; TGI [8]: 74.6 µM; TGI [9]: > 100 µM; TGI [10]: > 100 µM; TGI [11]: 43.7 µM; TGI [12]: 50.9 µM; TGI [13]: > 100 µM; TGI [14]: 67.7 µM; TGI [15]: > 100 µM; TGI [16]: > 100 µM; TGI [17]: 48.5 µM; TGI [18]: 78.8 µM; TGI [19]: > 100 µM; TGI [20]: 55.9 µM; TGI [21]: 53.1 µM; TGI [22]: > 100 µM; TGI [23]: 37.3 µM; TGI [24]: 71.7 µM; TGI [25]: 94 µM; TGI [26]: 51.3 µM; TGI [27]: > 100 µM; TGI [28]: 86.6 µM; TGI [29]: 72.7 µM; TGI [30]: > 100 µM; TGI [31]: 90.4 µM; TGI [32]: > 100 µM; TGI [33]: 34.3 µM; TGI [34]: > 100 µM; TGI [35]: 66.2 µM; TGI [36]: 44.7 µM; TGI [37]: > 100 µM; TGI [38]: 84.6 µM; TGI [39]: 74.5 µM; TGI [40]: > 100 µM; TGI [41]: 71.8 µM; TGI [42]: > 100 µM; TGI [43]: 32.7 µM; TGI [44]: 55.2 µM; TGI [45]: > 100 µM; TGI [46]: 46.8 µM; TGI [47]: > 100 µM; TGI [48]: > 100 µM; TGI [49]: > 100 µM; TGI [50]: > 100 µM; TGI [51]: > 100 µM; TGI [52]: > 100 µM; TGI [53]: > 100 µM

Which results are given for N#CC(C#N)N=Nc1ccc(-c2nc3ccccc3[nH]2)cc1?
TGI [1]: > 100 µM; TGI [2]: > 100 µM; TGI [54]: 66.4 µM; TGI [3]: 70.9 µM; TGI [4]: 37.6 µM; TGI [5]: 43.2 µM; TGI [6]: 35.5 µM; TGI [7]: 47.7 µM; TGI [8]: 22.9 µM; TGI [9]: 34.8 µM; TGI [10]: 68.9 µM; TGI [11]: 52.3 µM; TGI [55]: > 100 µM; TGI [12]: 43.2 µM; TGI [13]: 58.7 µM; TGI [15]: 37.9 µM; TGI [16]: 40 µM; TGI [17]: 64 µM; TGI [18]: 28 µM; TGI [19]: 55.7 µM; TGI [20]: 49.6 µM; TGI [21]: > 100 µM; TGI [22]: > 100 µM; TGI [23]: 1.38 µM; TGI [24]: 50.4 µM; TGI [56]: 52 µM; TGI [25]: > 100 µM; TGI [26]: 35.5 µM; TGI [27]: > 100 µM; TGI [28]: 29 µM; TGI [29]: 50.6 µM; TGI [30]: > 100 µM; TGI [31]: > 100 µM; TGI [32]: 82.6 µM; TGI [33]: > 100 µM; TGI [34]: > 100 µM; TGI [35]: 36.8 µM; TGI [36]: > 100 µM; TGI [37]: > 100 µM; TGI [38]: 36.3 µM; TGI [39]: 66 µM; TGI [57]: > 100 µM; TGI [40]: > 100 µM; TGI [41]: 37.8 µM; TGI [42]: 40.9 µM; TGI [43]: 21.8 µM; TGI [44]: 31.1 µM; TGI [45]: > 100 µM; TGI [46]: > 100 µM; TGI [47]: 73.4 µM; TGI [48]: > 100 µM; TGI [49]: 39.6 µM; TGI [50]: > 100 µM; TGI [51]: > 100 µM; TGI [58]: 46.9 µM; TGI [52]: 32.7 µM; TGI [53]: > 100 µM
